Source: ChEMBL document CHEMBL6071124, “The search for pyruvate kinase-R activators; from a HTS screening hit via an impurity to the discovery of a lead series” (Bioorg Med Chem Lett, 2024)
Values after ≈ are worked out from the molar mass of the structure shown. Values belong to the compound of their own block, whether it stands above or below them.

Legend:
Pyruvate kinase PKLR [1] = target: T1, Pyruvate kinase PKLR (Homo sapiens, UniProt P30613); experiment: Activation of PKR (unknown origin) by differential scanning fluorimetry analysis
Pyruvate kinase PKLR [2] = target: T1, Pyruvate kinase PKLR; experiment: Activation of PKR (unknown origin)
[3] = Permeability of the compound across apical to basolateral side; assay type: ADME; details: not told; read-out: permeability
[4] = AUC in rat at 10 mg/kg, po; assay type: ADME, organism-based; details: in vivo
[5] = target: Voltage-gated inwardly rectifying potassium channel KCNH2 (Homo sapiens, UniProt Q12809); experiment: Inhibition of human ERG at >50 uM; assay type: toxicity
aromatase = target: T2, aromatase (Homo sapiens, UniProt P11511); experiment: Inhibition of aromatase (unknown origin) at 10 uM relative to control
T2 sequence (P11511 whole entry): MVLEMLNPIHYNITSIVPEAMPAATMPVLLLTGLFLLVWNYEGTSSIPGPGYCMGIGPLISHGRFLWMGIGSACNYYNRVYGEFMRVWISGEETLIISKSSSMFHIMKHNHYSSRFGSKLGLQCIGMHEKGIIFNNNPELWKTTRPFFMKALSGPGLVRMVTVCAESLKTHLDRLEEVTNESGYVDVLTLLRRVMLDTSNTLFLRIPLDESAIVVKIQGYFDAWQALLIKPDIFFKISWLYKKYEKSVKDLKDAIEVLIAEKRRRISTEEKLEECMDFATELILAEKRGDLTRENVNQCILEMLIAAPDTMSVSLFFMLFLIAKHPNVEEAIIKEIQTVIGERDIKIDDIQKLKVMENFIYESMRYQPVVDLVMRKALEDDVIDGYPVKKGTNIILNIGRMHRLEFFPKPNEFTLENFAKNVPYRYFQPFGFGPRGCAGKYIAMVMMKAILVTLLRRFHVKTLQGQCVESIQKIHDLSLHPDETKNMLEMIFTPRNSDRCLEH

[6] = Genotoxicity in Salmonella typhimurium; assay type: toxicity; details: salmonella enterica subsp. enterica serovar typhimurium
[7] = Half life in rat at 10 mg/kg, po; assay type: ADME, organism-based; details: in vivo
[8] = Solubility of the compound; assay type: physicochemical

T1 sequence (P30613 whole entry): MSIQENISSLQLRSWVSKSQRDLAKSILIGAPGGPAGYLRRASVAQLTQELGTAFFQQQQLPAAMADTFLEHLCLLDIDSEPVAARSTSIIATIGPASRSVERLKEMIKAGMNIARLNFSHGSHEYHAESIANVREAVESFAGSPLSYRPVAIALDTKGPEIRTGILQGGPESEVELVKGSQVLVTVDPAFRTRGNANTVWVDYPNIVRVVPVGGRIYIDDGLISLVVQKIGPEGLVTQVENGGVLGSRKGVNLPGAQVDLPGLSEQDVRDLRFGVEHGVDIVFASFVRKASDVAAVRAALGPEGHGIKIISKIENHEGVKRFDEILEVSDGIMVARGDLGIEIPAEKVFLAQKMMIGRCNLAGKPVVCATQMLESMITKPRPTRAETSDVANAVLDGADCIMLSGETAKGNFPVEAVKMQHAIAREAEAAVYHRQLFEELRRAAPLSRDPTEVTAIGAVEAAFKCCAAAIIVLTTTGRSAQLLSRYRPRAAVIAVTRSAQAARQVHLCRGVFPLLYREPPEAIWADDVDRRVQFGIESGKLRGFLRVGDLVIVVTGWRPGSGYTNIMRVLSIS
Chain of Voltage-gated inwardly rectifying potassium channel KCNH2 (Q12809 whole entry): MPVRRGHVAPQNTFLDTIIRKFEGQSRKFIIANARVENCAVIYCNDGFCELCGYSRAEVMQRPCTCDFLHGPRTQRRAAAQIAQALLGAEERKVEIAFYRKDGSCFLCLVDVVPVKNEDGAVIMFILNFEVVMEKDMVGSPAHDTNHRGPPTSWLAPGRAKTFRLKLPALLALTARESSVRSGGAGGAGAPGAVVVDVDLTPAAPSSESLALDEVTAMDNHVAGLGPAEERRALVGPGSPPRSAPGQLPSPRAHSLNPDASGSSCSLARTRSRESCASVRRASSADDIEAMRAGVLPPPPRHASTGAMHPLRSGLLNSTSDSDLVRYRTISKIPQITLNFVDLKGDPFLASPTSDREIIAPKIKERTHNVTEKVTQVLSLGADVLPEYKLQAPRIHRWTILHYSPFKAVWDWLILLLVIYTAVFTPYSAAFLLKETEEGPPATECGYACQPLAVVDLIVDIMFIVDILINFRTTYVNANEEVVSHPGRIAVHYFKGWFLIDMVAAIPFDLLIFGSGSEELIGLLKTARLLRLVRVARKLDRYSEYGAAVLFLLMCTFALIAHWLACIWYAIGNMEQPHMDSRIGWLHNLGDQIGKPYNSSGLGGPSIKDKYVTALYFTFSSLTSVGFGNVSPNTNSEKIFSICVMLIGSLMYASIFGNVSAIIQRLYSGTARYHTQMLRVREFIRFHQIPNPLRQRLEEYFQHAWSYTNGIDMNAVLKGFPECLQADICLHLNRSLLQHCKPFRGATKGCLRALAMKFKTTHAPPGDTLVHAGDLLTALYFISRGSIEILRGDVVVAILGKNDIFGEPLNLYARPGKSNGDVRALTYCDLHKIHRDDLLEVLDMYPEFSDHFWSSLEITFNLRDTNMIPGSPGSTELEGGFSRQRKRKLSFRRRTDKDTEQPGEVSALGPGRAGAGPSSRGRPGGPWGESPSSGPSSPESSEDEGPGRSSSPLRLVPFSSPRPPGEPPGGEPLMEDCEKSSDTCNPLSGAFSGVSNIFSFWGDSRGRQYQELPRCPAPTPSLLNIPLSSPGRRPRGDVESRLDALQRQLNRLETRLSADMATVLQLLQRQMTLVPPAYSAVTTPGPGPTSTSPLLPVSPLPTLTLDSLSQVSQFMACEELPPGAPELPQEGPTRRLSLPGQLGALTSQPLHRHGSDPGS

EC50 (Pyruvate kinase PKLR [2]): 100 µM
Compound: Cc1ccc(-n2nnnc2CNC(=O)Nc2ccccc2)cc1C

Papp A→B [3]: 1.2 ×10⁻⁶ cm/s
AUC [4]: 2.9 µM·h
inhibition at 10 µM (aromatase): 17%
half-life [7]: 2.4 h
solubility [8]: 59 µM (≈ 29 µg/mL)
Compound: Cc1nc(CNC(=O)NCc2ncnn2-c2ccc3cccnc3c2)n(-c2ccc(Cl)c(F)c2)n1
inhibition (INH) [5]: Not Active
Activity [6]: Non-Toxic

EC50 (Pyruvate kinase PKLR [2]): 100 µM
Compound: O=C(NCc1nnnn1-c1ccc(Cl)cc1)Nc1cccs1

More lines, now with the values behind:

Compound: Cc1cnccc1CNC(=O)c1cc(COc2ccc3c(c2)OCO3)[nH]n1
EC50 (Pyruvate kinase PKLR [1]): 58 µM

Compound: O=C(NCc1nnnn1-c1ccc(F)c(F)c1)Nc1cccs1
EC50 (Pyruvate kinase PKLR [2]): 100 µM

Compound: Cc1ccc(-n2nnnc2CNC(=O)NC2CCCCC2)cc1C
EC50 (Pyruvate kinase PKLR [2]): 100 µM
